Experimental data published in patent US11634423B2, “Substituted pyrazolo[1,5-a]pyrimidines as inhibitors of interferon signaling” (Eli Lilly and Company, priority 2020, dated 2023).
pIC50: −log10 of the molar value.

Assays:
[1] = system: IL-23 signaling (STAT3 phosphorylation) in Kit225 cells; test: IL23 pSTAT3 AlphaLISA Assay; type: cell-based; details: 0.5 h, 1 hour preincubation, IL-23 25 ng/mL for 30 minutes, in presence of IL-2, relative IC50, geometric mean (SEM), read-out: IL-23 inh IC50
Description: IL-2-dependent Kit225 cells (University of Texas MD Anderson Cancer Center) expressing endogenous IL-23 receptors are stably transduced with the Lenti STAT3 Reporter linked to firefly luciferase (SABiosciences CLS-6028L). These cells are used to monitor TYK2 activity by quantifying gene expression caused by STAT3 phosporylation following induction by IL-23 in the presence of IL-2 using AlphaLISA technology (TGR Biosciences ALSU-TST3-A50K). The cells are grown in RPMI 1640 (Gibco 22400) supplemented with 10% FBS (Invitrogen 10082), 1× Pen/Strep (Gibco 15140-122), 200 ng/ml Puromycin (Sigma P9620), and fresh 10 ng/ml recombinant human IL-2 (R&D Systems 202-IL-50).
For assay preparation, cells are dispensed into Biocoat black poly-d-lysine coated clear bottom 384-well plates (Becton Dickinson Bio-Coat 35-4640) in DMEM (Sigma D5796) at 300,000 cells/well and allowed to incubate overnight at 37° C. Compounds solubilized in DMSO are serially diluted 1:3 to produce a 10-point concentration response curve (final DMSO=0.1%). Cells are pre-incubated with Example 1 for 1 hour at 37° C., then stimulated with IL-23 (25 ng/mL final) for 30 minutes. After centrifugation at 2000 rpm for 10 minutes, cell pellets are lysed with a mixture of 1:1 lysis buffer (TGR Biosciences) and Halt Protease & Phosphatase inhibitor cocktail (Thermo Scientific 1861281) for 30 minutes. The AlphaLISA reaction is performed following the vendor's recommended protocol, and the luciferase levels are measured using an Envision plate reader (Perkin Elmer). The relative IC50 is calculated using a 4-parameter nonlinear logistic equation (GeneData Screener 13.0.5) to give an IC50 for the compounds tested expressed as GeoMetric means with the standard error of the mean (SEM).

[2] = molecular target: T1, pseudokinase domain (JH2) of human TYK2 (Homo sapiens, UniProt P29597); test: TYK2-JH2 Tracer Binding Assay; details: TR-FRET tracer displacement, His-tagged TYK2-JH2 0.200 nM, Tracer 2.00 nM, 30 minutes
T1 construct: The pseudokinase domain (JH2) of human JAK; made in house
Excerpt: The pseudokinase domain (JH2) of human JAK (Janus family of cytoplasmic tyrosine kinases) family tyrosine kinase 2 (TYK2) (Genbank NP_003322) with an N-terminal His6 tag is expressed in baculovirus and purified by HisPur Ni-NTA affinity and Superdex 200 size-exclusion chromatography. The compound prepared in Preparation 17, a conjugate of Alexa Fluor 647 dye (Thermo Fisher Scientific) and a suitable TYK2 JH2 binder, is referred to herein as “the Tracer”. A 3 fold, 10 point serial dilution of compound (Examples 1, 2, and 3) are prepared in 100% DMSO and 50 nL/well transferred to a Proxiplate-384F white plate (PerkinElmer 6008280) using acoustic liquid handling. Control wells used to determine percent inhibition contained 100% DMSO (50 nL) and either assay buffer containing the Tracer (2.00 nM final concentration) (min, low FRET) or diluted TYK2-JH2 enzyme (0.200 nM final concentration) and the Tracer (2.00 nM final concentration) (max, high FRET).
5.0 μL of His-tagged TYK2-JH2 (0.402 nM) and LanthaScreen Eu-anti-HIS Ab (4.02 nM, LifeTech, PV5597) in assay buffer (50 mM HEPES […], 10 mM magnesium chloride, 1 mM ethylene glycol-bis(β-aminoethyl ether)-N,N,N′,N′-tetraacetic acid, 0.01% Brij-35 and Milli-Q) water is added to the Proxiplate-384 plate containing the 50 nL of diluted compound and control wells. 5.0 μL of the Tracer (2.00 nM final concentration) in assay buffer is added to the plate and allowed to equilibrate for 30 minutes at ambient temperature. After 30 minutes, the plate is counted on a PerkinElmer Envision with the following settings: Excitation (340 nm), Tracer Emission (665 nm) and LanthaScreen Eu-anti-His Antibody Emission (615 nm). The ratio of Tracer Emission (665 nm) over LanthaScreen Eu-anti-His Antibody Emission (615 nm) is determined. Percent inhibition of ratio at each inhibitor concentration is calculated using the max and min control wells and fit to the four parameter nonlinear logistic equation in GeneData Screener® to give an IC50 for the compounds tested.

[3] = system: IFNα signaling through pSTAT1 in TF1 cells; test: Inhibition of IFNα signaling through pSTAT1 in TF1 cells; type: cell-based; details: Homo sapiens, TF-1, 1 hour preincubation, 10 ng/mL IFNα2 for 20 minutes, p-Stat1 (Tyr701) AlphaLISA, geometric mean (SEM), read-out: IFNα inh IC50
Description: TF1 cells (ATCC, CL-2003) are grown in RPMI 1640 (GIBCO) supplemented with 10% dialyzed FBS, 0.1 mg/mL Ampicillin and 2 ng/mL granulocyte macrophage colony stimulating factor. TF1 cells (100 K per well) are seeded in a 96-well poly-D-lysine coated plates in serum-free DMEM and incubated overnight at 37° C. under 5% CO2. Example 1 is serially diluted in DMSO, added to the cells, and incubated at 37° C. for 1 hour. Cells are then stimulated with 10 ng/mL IFNα2 at 37° C. for 20 minutes. After removing the medium, the cells are lysed in buffer containing Halt protease and phosphatase inhibitor cocktail (Thermo Scientific #78441) at ambient temperature for 30 minutes. The amount of p-Stat1 (Tyr701) is quantified as light emission at 615 nm using the AlphaLISA SureFire Ultra p-Stat1 (Tyr701) assay kit (Perkin Elmer #ALSU-PST1-A50K) following the vendor's recommended protocol. Percent inhibition at each inhibitor concentration is calculated and fit to the four parameter nonlinear logistic equation using Genedata Screener© to give an IC50 for the compounds tested expressed as GeoMetric means with the standard error of the mean (SEM).

T1 sequence (P29597 589-875 limits assumed): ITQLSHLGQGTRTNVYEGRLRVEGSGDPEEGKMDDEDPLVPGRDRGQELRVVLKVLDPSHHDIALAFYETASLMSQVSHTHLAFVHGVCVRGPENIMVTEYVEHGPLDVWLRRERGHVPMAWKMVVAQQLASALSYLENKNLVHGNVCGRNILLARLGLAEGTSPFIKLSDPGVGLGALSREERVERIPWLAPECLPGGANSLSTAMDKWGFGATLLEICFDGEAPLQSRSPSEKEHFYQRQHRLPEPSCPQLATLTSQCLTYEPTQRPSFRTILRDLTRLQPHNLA

Compound | pIC50 [1] | pIC50 [2] | pIC50 [3]
CNc1cc(Nc2cccn(-c3ccc(C)cn3)c2=O)nc2c(C(=O)N[C@@H]3CCN(C)C3=O)cnn12 [Example 1, 7-(Methylamino)-N-[(3R)-1-methyl-2-oxo-pyrrolidin-3-yl]-5-[[1-(5-methyl-2-pyridyl)-2-oxo-3-pyridyl]amino]pyrazolo[1,5-a]pyrimidine-3-carboxamide] | 7.19 | > 9.60 | 6.95
CNc1cc(Nc2cccn(-c3cccc(C)n3)c2=O)nc2c(C(=O)N[C@@H]3CCN(C)C3=O)cnn12 [Example 2, 7-(Methylamino)-N-[(3R)-1-methyl-2-oxo-pyrrolidin-3-yl]-5-[[1-(6-methyl-2-pyridyl)-2-oxo-3-pyridyl]amino]pyrazolo[1,5-a]pyrimidine-3-carboxamide] | 7.00 | > 9.60 | 6.69
CNc1cc(Nc2cccn(-c3ccccn3)c2=O)nc2c(C(=O)N[C@@H]3CCN(C)C3=O)cnn12 [Example 3, 7-(Methylamino)-N-[(3R)-1-methyl-2-oxo-pyrrolidin-3-yl]-5-[[2-oxo-1-(2-pyridyl)-3-pyridyl]amino]pyrazolo[1,5-a]pyrimidine-3-carboxamide] | 7.00 | > 9.60 | 6.97
